Data published in patent US5486604A, “Cyclic ADP ribose antagonists” (Regents of the University of Minnesota, priority 1993, dated 1996).

Legend:
[1] = system: Ca^+2 release induced by ryanodine; experiment: Ryanodine induced Ca2+ release, S. purpuratus homogenates; type: biochemical, Strongylocentrotus purpuratus
Procedure: FIG. 8 Inability of 8-amino-cADPR to block Ca^+2 release induced by ryanodine. Ca^+2 release from S. purpuratus homogenates (1.25%) was measured using Fluo 3 as Ca^+2 indicator. Ryanodine and 8-amino-cADPR(8-NH2) were added to the final concentrations as indicated;
Homogenates from Strongylocentrotus purpuratus eggs were prepared as previously described (Lee, H. C. (1991) J. Biol. Chem. 266, 2276-2281, Lee, H. C. (1993) J. Biol. Chem. 268, 293-299). Briefly, eggs were washed once in artificial sea water, twice in Ca^+2 -free sea water containing 1 mM EGTA, twice in Ca^+2 -free sea water without EGTA, once with the homogenization buffer (GluIAG MPM) containing 250 mM N-methylglucamine, 250 mM potassium gluconate, 20 mM HEPES, and 1 mM MgCl2; pH titrated to 7.2 with acetic acid and resuspended with the same medium to 25% (v/v). The following additions were made: 10 μg/ml of leupeptin, 10 μg/ml of aprotinin, 50 μg/ml of soybean trypsin inhibitor, 2 units/ml of creatine kinase, 4 mM phosphocreatine and 0.5 mM ATP. The suspension was chilled on ice for 10-15 min and transferred to a beaker inside a cell disruption bomb (Parr Instrument Co., Ill.). The suspension was mixed continuously with a magnetic stirring bar while nitrogen pressure of 80 psi was applied for 10-30 seconds. The sudden decompression of the suspension as it was released from the bomb effectively homogenized the eggs. […]
(§1) Frozen egg homogenates prepared as described above were thawed in a 17° C. water bath for 20-30 min and then diluted to 5% with the homogenization medium (GLuIM) containing 2 units/ml of creatine kinase, 4 mM phosphocreatine and 0.5 mM ATP. […] Fluorescence was measured at 490 nm excitation and 535 nm emission using a Hitachi spectrofluorimeter (F-2000). Fluo 3 fluorescence intensity is directly related to the Ca^+2 concentration (Dargie, P. J., Agre, M. C., and Lee, Hon. C. (1990) Cell Regulation 1,279-290). In some Figures the Fluo 3 fluorescence intensity was calibrated with the addition of known amounts of Ca^ +2. […]

cADPR binding site = experiment: Specific binding of [32P]cADPR to sea urchin egg microsomes (filtration assay); design: species or system Lytechinus pictus
Procedure: FIG. 4 Competitive inhibition of ^32 P-cADPR binding by 8-amino-cADPR and cADPR. Specific binding of ^32 P-cADPR to L. pictus microsomes was measured in the presence of various concentrations of cADPR (filled squares) and 8-amino-cADPR (open squares). Total binding in the presence of a high concentration of cADPR (1.2 μM) was taken as non-specific binding (55 cpm) and was subtracted from all the values;
Specific binding of [^32 P]cADPR to sea urchin egg microsomes was determined by a filtration assay as described previously (Lee, H. C. (1991) J. Biol. Chem. 266, 2276-2281) with some modifications. L. pictus egg homogenates (1 ml) were dialyzed overnight against 1 liter of the homogenization buffer (GluIM listed above). After dialysis, the homogenates were centrifuged for 30 min in a microfuge and the supernatant containing microsomes was collected and diluted 20 fold with GluIM. About 40,000 cpm of [^32 P]cADPR (400 Ci/mmol) and various concentrations of either cADPR or 8-substituted analogs were incubated with the 20 fold diluted microsomes for 10 min at 4° C. in a volume of 0.1 ml. […] The filters were then washed with 4 ml of 10 % polyethylene glycol and the radioactivity on the filters was determined by liquid scintillation counting. […] The specific binding was determined as the total binding minus the binding in the presence of 1.2 μM of unlabeled cADPR. […]

[2] = system: caffeine induced Ca^+2 release; experiment: Caffeine induced Ca2+ release and its potentiation by cADPR, S. purpuratus homogenates; type: biochemical, Strongylocentrotus purpuratus
Procedure: FIG. 7 Inhibition of the potentiating effect of cADPR on caffeine induced Ca^+2 release. Ca^+2 release from S. purpuratus homogenates (1.25%) was measured using Fluo 3 as Ca^+2 indicator. (a) In the absence of cADPR, addition of 1 mM caffeine induced no Ca^+2 release (curve labeled 0). The presence of 20 nM cADPR (arrow labeled cADPR) greatly potentiated the Ca^+2 releasing activity of 1 mM caffeine (curve labeled 20).
(§2) Homogenates from Strongylocentrotus purpuratus eggs were prepared as previously described (Lee, H. C. (1991) J. Biol. Chem. 266, 2276-2281, Lee, H. C. (1993) J. Biol. Chem. 268, 293-299). Briefly, eggs were washed once in artificial sea water, twice in Ca^+2 -free sea water containing 1 mM EGTA, twice in Ca^+2 -free sea water without EGTA, once with the homogenization buffer (GluIAG MPM) containing 250 mM N-methylglucamine, 250 mM potassium gluconate, 20 mM HEPES, and 1 mM MgCl2; pH titrated to 7.2 with acetic acid and resuspended with the same medium to 25% (v/v). The following additions were made: 10 μg/ml of leupeptin, 10 μg/ml of aprotinin, 50 μg/ml of soybean trypsin inhibitor, 2 units/ml of creatine kinase, 4 mM phosphocreatine and 0.5 mM ATP. The suspension was chilled on ice for 10-15 min and transferred to a beaker inside a cell disruption bomb (Parr Instrument Co., Ill.). The suspension was mixed continuously with a magnetic stirring bar while nitrogen pressure of 80 psi was applied for 10-30 seconds. The sudden decompression of the suspension as it was released from the bomb effectively homogenized the eggs. The homogenates were centrifuged for 12-14 seconds (13,000×g, 4° C.) in a microfuge (Fisher) and the supernatant was collected and stored frozen at -70 ° C. until use.
(§3) Frozen egg homogenates prepared as described above were thawed in a 17° C. water bath for 20-30 min and then diluted to 5% with the homogenization medium (GLuIM) containing 2 units/ml of creatine kinase, 4 mM phosphocreatine and 0.5 mM ATP. After incubating at 17° C. for one hour the homogenates were diluted sequentially to 2.5% and finally to 1.25% with the same medium. Following each dilution, the homogenates were incubated at 17° C. for one hour. After the last dilution, fluo 3 was added to a final concentration of 3 μM. Fluorescence was measured at 490 nm excitation and 535 nm emission using a Hitachi spectrofluorimeter (F-2000). Fluo 3 fluorescence intensity is directly related to the Ca^+2 concentration (Dargie, P. J., Agre, M. C., and Lee, Hon. C. (1990) Cell Regulation 1,279-290). In some Figures the Fluo 3 fluorescence intensity was calibrated with the addition of known amounts of Ca^ +2. All assays were done in a curvette maintained at 17° C. with a circulating water bath and its content continuously mixed with a magnetic stirring bar. The volume of homogenate used for each assay was 0.2 ml.

[3] = system: Ca^+2 induced Ca^+2 release; experiment: cADPR potentiation of divalent cation (Ca2+, Sr2+) induced Ca2+ release, S. purpuratus homogenates; type: biochemical, Strongylocentrotus purpuratus
Procedure: FIG. 6 Inhibition of the potentiating effect of cADPR on Ca^+2 release induced by divalent cations. […] release from S. purpuratus homogenates (1.25% ) was measured using Fluo 3 as Ca^+2 indicator. (a) Ca^+2 release was induced by 75 nM cADPR in the absence of 8-amino-cADPR (-8-NH2). Prior addition of 50 nM 8-amino-cADPR (+8 NH2) prohibited cADPR (75 nM) from releasing Ca^+2. (b) In the presence of 30 nM cADPR, addition of 0.4 nmol of Ca^+2 (arrow labeled Ca) induced further Ca^+2 release (-8-NH2). Prior addition of 50 nM 8-amino-cADPR blocked cADPR from potentiating the Ca^+2 induced Ca^+2 release (+8-NH2). (c) In the presence of 30 nM cADPR, addition of 2 nmol of Sr^+2 (arrow labeled Sr) induced further Ca^ +2 release (-8-NH2). […]
as §1

[4] = system: cADPR-sensitive Ca^+2 release; experiment: cADPR-induced Ca2+ release from S. purpuratus egg homogenates, Fluo 3 as Ca2+ indicator; type: biochemical, Strongylocentrotus purpuratus
Procedure: FIG. 2 Inhibition of cADPR induced Ca^+2 release by 8-amino-cADPR Ca^+2 release from S. purpuratus homogenates (1.25%) was monitored using Fluo 3 as Ca^+2 indicator. (a) The effect of varying the concentration of cADPR on Ca^+2 release. (b) The inhibition of Ca^+2 release induced by 135 nM of cADPR by pre-treatment of the homogenates with 100 nM 8-amino-cADPR.
FIG. 3 Competitive inhibition of cADPR dependent Ca^+2 release by 8-amino-cADPR. Ca^+2 release from S. purpuratus homogenates (1.25%) induced by various concentrations of cADPR was measured in the presence and absence of 100 nM 8-amino-cADPR (8-amino-cADPR);
FIG. 5 Effectiveness of 8-amino-cADPR in blocking Ca^+2 release induced by cADPR. (a) Ca^+2 release from S. purpuratus homogenates (1.25%) induced by the addition of 95 nM cADPR was measured using Fluo 3 as Ca^+2 indicator. (b-d) After the Ca^+2 release had started, increasing amounts of 8-amino-cADPR (8-NH2) were added to give the final concentrations indicated in the Figure;
as §2, §3

cADPR-sensitive release = conditions: pharmacological blockers of CICR; cited from earlier work
[5] = system: cADPR-sensitive Ca^+2 release; experiment: cADPR-induced Ca2+ release from L. pictus egg homogenates, Fluo 3; type: biochemical, Lytechinus pictus
[6] = system: specific microsomal binding site for cADPR; conditions: cited from earlier work

For `N=c1c2nc(N)n3c2ncn1[C@@H]1O[C@H](COP(=O)(O)OP(=O)(O)OC[C@H]2O[C@@H]3[C@H](O)[C@@H]2O)[C@@H](O)[C@H]1O` [8-amino-cADPR], the “effect of antagonist on the Ca^+2 release activity of ryanodine” value ([1]; 100 nM antagonist) was “slightly stimulated”, the “inhibition of Ca^+2 release induced by ryanodine” value ([1]; 100 nM antagonist) was “did not inhibit” and the “competition for the [32P]cADPR binding sites” value (cADPR binding site; L. pictus egg microsomes, compared with unlabeled cADPR) was “as effective as cADPR itself”. The “block of Ca^+2 release induced by a high concentration of caffeine” value ([2]; 100 nM antagonist, 2.5 mM caffeine, data not shown) was “did not block”, the “inhibition of cADPR (20 nM) potentiation of caffeine (1 mM) induced Ca^+2 release” value ([2]; prior addition of 10 nM antagonist) was “substantial inhibition” and the “inhibition of cADPR (20 nM) potentiation of caffeine (1 mM) induced Ca^+2 release” value ([2]; prior addition of 100 nM antagonist) was “completely blocked”. For the same compound, the “stimulated Ca^+2 release after 0.4 nmol Ca^+2 in the presence of 30 nM cADPR” value ([3]; 50 nM antagonist added before cADPR) was “absent”, the “stimulated Ca^+2 release after Sr^+2 in the presence of 30 nM cADPR” value ([3]; prior addition of 50 nM antagonist, 2 nmol Sr^+2) was “blocked” and the “effect on the concentration-response curve of cADPR” value ([4]; 100 nM 8-amino-cADPR present) was “shifted the concentration-response curve toward higher concentrations of cADPR”. For the same compound, the IC50 ([4]; 135 nM cADPR, read-out: concentration of antagonist at which the rate of Ca^+2 release induced by cADPR was reduced by half) was roughly 9 nM, the “block of Ca^+2 release induced by cADPR” value ([4]; 150 nM analog added before 135 nM cADPR) was “virtually complete” and the “Ca^+2 release caused by the analog itself” value ([4]; 150 nM final concentration, egg homogenates 1.25%) was “did not cause any”. The “kind of antagonism of cADPR” value ([4]; inhibition overcome by increasing cADPR) was “reversible antagonist”, the “block of Ca^+2 release induced by 75 nM cADPR” value ([4]; prior addition of 50 nM antagonist) was “total blockage” and the “effect on ongoing Ca^+2 release when added after release had commenced” value ([4]; release activated by 95 nM cADPR, 100 nM antagonist) was “almost total cessation”.

For `N.N.N.N.N.N.N.N.N.N.N.N.N.N.[Cl-].[Cl-].[Cl-].[Cl-].[Cl-].[Cl-].[O-2].[O-2].[Ru+3].[Ru+3].[Ru+4]` [ruthenium red], the “effect on the cADPR-sensitive release” value (cADPR-sensitive release) is listed as “specifically inhibit”.

In the case of `N=c1c2ncn3c2ncn1[C@@H]1O[C@H](COP(=O)(O)OP(=O)(O)OC[C@H]2O[C@@H]3[C@H](O)[C@@H]2O)[C@@H](O)[C@H]1O` [cADPR, Cyclic ADP-ribose, reference compound], the Kd (cADPR binding site; dialyzed L. pictus homogenates, 0-5 C, no ATP, read-out: apparent affinity constant derived from the binding data) is reported as roughly 1 nM, the “potentiation of caffeine (1 mM) induced Ca^+2 release” value ([2]; 20 nM cADPR, not sufficient to release Ca^+2 by itself) is reported as “greatly increased the caffeine sensitivity” and the EC50 ([4]; in the absence of the analog, read-out: half-maximal concentration for Ca^+2 release) is reported as roughly 90 nM.

For `N=c1c2nc(Br)n3c2ncn1[C@@H]1O[C@H](COP(=O)(O)OP(=O)(O)OC[C@H]2O[C@@H]3[C@H](O)[C@@H]2O)[C@@H](O)[C@H]1O` [8-Br-cADPR], the “concentrations required for antagonism, compared with 8-amino-cADPR” value ([5]; 40 nM cADPR) was “required micromolar concentrations”, the “Ca^+2 release caused by the analog itself” value ([5]; 1 to 3.5 uM, L. pictus homogenates 2.5%) was “did not release” and the “blockage of Ca^+2 release induced by 40 nM cADPR” value ([5]; prior addition of increasing concentrations, 1 to 3.5 uM) was “progressive blockage”.

In the case of `CCN(CC)CCOC(=O)c1ccc(N)cc1` [procaine], the “effect on the cADPR-sensitive release” value (cADPR-sensitive release) is given as “specifically inhibit”.

For `[N-]=[N+]=Nc1nc2c(=N)n3cnc2n1[C@@H]1O[C@H](COP(=O)(O)OP(=O)(O)OC[C@H]2O[C@@H]3[C@H](O)[C@@H]2O)[C@@H](O)[C@H]1O` [8-azido-cADPR], the antagonist potency rank ([5]; data not shown) was “between that of 8-amino-cADPR and 8-Br-cADPR”.

For ryanodine [reference compound], the “Ca^+2 release on addition to egg homogenates” value ([1]; ryanodine alone) was “concentration-dependent release”.

In the case of inositol trisphosphate, the “competition for the specific microsomal binding site for cADPR, relative to cADPR” value [6] is given as “at least a thousand times less effectively than cADPR”.

For `Cn1c(=O)c2c(ncn2C)n(C)c1=O` [caffeine, reference compound], the “Ca^+2 release by caffeine alone” value ([2]; 1 mM caffeine, absence of cADPR) was “did not produce any”.
